What was measured:
Eimeria tenella = assay: efficacy against coccidial infections in chickens (Table II); format: in vivo; details: for Ratio: lesion score treated / infected control; for % Weight Gain / Average Degree of Infection: chicks; for Average Degree of Infection: lesion score 0 to 4, six days
Procedure: (§1) Efficacy data for Antibiotic CP-63,517 and its salts against coccidial infections in chickens was obtained in the following fashion. Groups of 3-5 ten-day old SPF white leghorn cockerel chicks were fed a mash diet containing Antibiotic CP-63,517, its sodium and/or potassium salt, or the known agents Monensin or Stenorol uniformly dispersed therein. After being on this ration for 24 hours each chick was inoculated per os with oocysts of the particular species of Eimeria being tested. Other groups of 3-5 ten-day old chicks were fed a similar mash diet free of any test compound. They were also infected after 24 hours and served as infected controls. Yet another group of 3-5 ten-day old chicks were fed the mash diet free of any test compound and were not infected with coccidia. These served as normal controls. The results of treatment were evaluated after five days in the case of E. acervulina, and six days for other challenges.
(§2) ^1 The criteria used to measure anticoccidial activity consisted of
(§3) lesion scores of 0 to 4 for Eimeria tenella after J. E. Lynch, "A New
(§4) Method for the Primary Evaluation of Anticoccidial Activity", Am. J. Vet.
(§5) modification of the scoring system devised by J. Johnson and W. H. Reid,
(§6) "Anticoccidial Drugs. Lesion Scoring Techniques in Battery and Floor Pen
(§7) Experiments in Chicks", Exp. Parasit. 28: 30-36 (1970). A constant ratio
(§8) was established by dividing the lesion score of each treated group by the
(§9) lesion score of the infected control.

rumen fluid = assay: in vitro rumen technique, propionic acid production; set-up: species or system calf
Procedure: The value of animal feeds generally has been determined directly by feeding the animal. British Pat. No. 1,197,826 details an in vitro rumen technique whereby the changes occurring in feeds brought about by microorganisms are measured more readily and with great accuracy in the evaluation of animal feeds. This technique involves the use of an apparatus in which the digestive processes of the animals are conducted and studied in vitro. The animal feeds, rumen inoculum and various growth promotants are introduced into and withdrawn from a laboratory unit under carefully controlled conditions and the changes taken place are studied critically and progressively during the consumption of the feed by the microorganisms. […] The change in propionic acid content is expressed as percent of the propionic acid content found in the control rumen fluid. Long term in vivo feeding studies are used to show a reliable correlation between propionic acid increase in the rumen fluid and improved animal performance.
Rumen fluid is collected from a fistulated calf which is fed on a commercial fattening ration plus hay. The rumen fluid is immediately filtered through cheese cloth, and 10 ml added to a 50 ml conical flask containing 400 mg of standard substrate (68% corn starch +17% cellulose +15% extracted soybean meal), 10 ml of a pH 6.8 buffer and the test compound. The flasks are gassed with oxygen free nitrogen for about two minutes, and incubated in a shaking water bath at 39° C. for about 16 hours. All tests are conducted in triplicate.
After incubation, 5 ml of the sample is mixed with 1 ml of 25% metaphosphoric acid. After 10 minutes 0.25 ml of formic acid is added and the mixture centrifuged at 1500 RPM for 10 minutes. Samples are then analyzed by gas-liquid chromatography by the method of D. W. Kellog, J. Dairy Science, 52, 1690 (1969). Peak heights for acetic, propionic and butyric acids are determined for samples from untreated and treated incubation flasks.

Eimeria acervulina = assay: efficacy against coccidial infections in chickens (Table II); format: in vivo; details: 9 ppm in diet; for Ratio: lesion score treated / infected control; for % Weight Gain / Average Degree of Infection: chicks; for Average Degree of Infection: lesion score 0 to 3, five days
Procedure: as §1, §2, §3, §4, §5, §6, §7, §8, §9

[1] = 53 ppm in diet, replicate (in parentheses)
[2] = 120 ppm in diet, replicate (in parentheses)
[3] = 0.75 ppm in diet, replicate (in parentheses)
[4] = 3 ppm in diet, replicate (in parentheses)
[5] = 9 ppm in diet, replicate (in parentheses)

CC[C@@]1([C@@H]2O[C@@H]([C@H]3O[C@@](O)(CO)[C@H](C)C[C@@H]3C)C[C@@H]2C)CC[C@H]([C@]2(C)CC[C@]3(C[C@H](O)[C@@H](C)[C@@H]([C@@H](C)[C@@H](OC)[C@H](C)C(=O)O)O3)O2)O1 [Monensin]
Ratio (Eimeria tenella; 53 ppm in diet): 0.69 | Ratio (Eimeria tenella; [1]): 0.54 | Ratio (Eimeria tenella; 120 ppm in diet): 0.09 | Ratio (Eimeria tenella; [2]): 0.32 | % Weight Gain (Eimeria tenella; 53 ppm in diet): 92% | Average Degree of Infection (Eimeria tenella; 53 ppm in diet): 2.3 | Average Degree of Infection (Eimeria tenella; [1]): 1.7 | % Weight Gain (Eimeria tenella; [1]): 99% | % Weight Gain (Eimeria tenella; 120 ppm in diet): 71% | Average Degree of Infection (Eimeria tenella; 120 ppm in diet): 0.3 | Average Degree of Infection (Eimeria tenella; [2]): 1.0 | % Weight Gain (Eimeria tenella; [2]): 68% | increase in production of propionic acid over control (rumen fluid; 10 micrograms per milliliter (10 μg/ml), comparison with Monensin): about 20%

O=C(CC1NCCCC1O)Cn1cnc2cc(Br)c(Cl)cc2c1=O (centres unmarked) [Stenorol]
Ratio (Eimeria acervulina): 0.0 | Ratio (Eimeria acervulina; replicate (in parentheses)): 0.0 | % Weight Gain (Eimeria acervulina): 48% | Average Degree of Infection (Eimeria acervulina): 0.0 | Average Degree of Infection (Eimeria acervulina; replicate (in parentheses)): 0.0 | % Weight Gain (Eimeria acervulina; replicate (in parentheses)): 51% | Ratio (Eimeria tenella; 0.75 ppm in diet): 0.51 | Ratio (Eimeria tenella; [3]): 0.73 | Ratio (Eimeria tenella; 3 ppm in diet): 0.0 | Ratio (Eimeria tenella; [4]): 0.0 | Ratio (Eimeria tenella; 9 ppm in diet): 0.0 | Ratio (Eimeria tenella; [5]): 0.0 | % Weight Gain (Eimeria tenella; 0.75 ppm in diet): 66% | Average Degree of Infection (Eimeria tenella; 0.75 ppm in diet): 1.7 | Average Degree of Infection (Eimeria tenella; [3]): 2.3 | % Weight Gain (Eimeria tenella; [3]): 90% | % Weight Gain (Eimeria tenella; 3 ppm in diet): 86% | Average Degree of Infection (Eimeria tenella; 3 ppm in diet): 0.0 | Average Degree of Infection (Eimeria tenella; [4]): 0.0 | % Weight Gain (Eimeria tenella; [4]): 103% | % Weight Gain (Eimeria tenella; 9 ppm in diet): 63% | Average Degree of Infection (Eimeria tenella; 9 ppm in diet): 0.0 | Average Degree of Infection (Eimeria tenella; [5]): 0.0 | % Weight Gain (Eimeria tenella; [5]): 77%

CC[C@@H](C(=O)[C@@H](C)[C@@H](O)[C@H](C)[C@@H]1O[C@@H]([C@@H](CC)C(=O)O)CC[C@@H]1C)[C@H]1O[C@]2(C=C[C@@H](O)[C@]3(CC[C@@](C)([C@H]4CC[C@](O)(CC)[C@H](C)O4)O3)O2)[C@H](C)C[C@@H]1C [Salinomycin, reference compound]
increase in propionic acid (rumen fluid; 10 μg/ml, comparison with Salinomycin): about 65%
